Experimental data published in patent publication US11919965B2, “Methods of treating multiple myeloma with bispecific anti-BCMA x anti-CD3 antibodies” (Regeneron Pharmaceuticals, Inc., priority 2019, dated 2024).
Where two headings read alike, the source gives them in different places.

Assays:
[1] = system: Jurkat/NFATLuc.3C7 reporter cells with HEK293 cells (BCMA negative); test: Jurkat/NFATLuc reporter bioassay (T-cell activation); type: cell-based, human
Method: (§1) Activity of the anti-BCMA×anti-CD3 bispecific antibodies were assessed in a Jurkat/NFATLuc reporter bioassay utilizing several cell lines with varying levels of BCMA surface expression. The Jurkat cells were engineered to express an NFAT-luciferase reporter (Jurkat/NFATLuc.3C7), and 50,000 Jurkat reporter cells were combined with 50,000 BCMA positive (Daudi, MM1-S, NCI-H929, OPM-2, RPMI-8226, MOLP-8, or Raji) or BCMA negative (HEK293) cells in Thermo Nunclon delta 96 well white microwell plates (Thermo Scientific, Cat #136102) in 50 ul of assay media (RPMI media with 10% FBS and 1% P/S/G). Three-fold serial dilutions of the BCMA×CD3 bispecific antibodies (mAb25441D or mAb25442D), or a bivalent anti-BCMA antibody (mAb21581) were immediately added in 50 uL of assay buffer. The plates were gently agitated and incubated in a 37° C., 5% CO2 incubator for 4-6 hours. NFAT-Luciferase activity was determined using Promega One-Glo (Cat #E6130) and a Perkin Elmer Envision plate reader. RLU were plotted in GraphPad Prism using a four-parameter logistic equation over a 12-point response curve to calculate EC50 values. The no antibody treatment condition for each dose-response curve is also included in the analysis as a continuation of the three-fold serial dilution and is represented as the lowest dose. The signal to noise (S:N) is determined by taking the ratio of the highest RLU on the curve to the lowest.

[2] = system: Jurkat/NFATLuc.3C7 reporter cells with MM1-S cells (BCMA positive); test: as above; type: cell-based, human
Method: as §1

[3] = system: Jurkat/NFATLuc.3C7 reporter cells with RPMI-8226 cells (BCMA positive); test: as above; type: cell-based, human
Method: as §1

[4] = system: Jurkat/NFATLuc.3C7 reporter cells with Raji cells (BCMA positive); test: as above; type: cell-based, human
Method: as §1

[5] = system: primary multiple myeloma blast cells; test: FACS cytotoxicity assay, autologous T cell-mediated killing of primary multiple myeloma blast cells; type: cell-based, human; details: for EC50: read-out: MM Lysis EC50
Method: In order to monitor the specific killing of multiple myeloma cells by flow cytometry, bone marrow mononuclear cells (BMMC) from multiple myeloma patients were plated on human stromal cells (HS5) and rested overnight at 37 C. Separately, matching patient peripheral blood mononuclear cells (PBMC) were thawed and cultured in supplemented RPMI media at 1×10^6 cells/mL overnight at 37° C. in order to enrich for lymphocytes by depleting adherent cells. The next day, BMMC were co-incubated with adherent cell-depleted naïve PBMC on stromal cells (HS5) and a serial 10× dilution of BCMA×CD3 bispecific or 1-arm CD3 isotype control (starting concentration 66.7 nM) at 37° C. Cells were removed from cell culture plates at day 3, 4 or 7 and analyzed by FACS. For the assessment of specificity of killing, multiple myeloma cells were gated as single, live, CD90 negative (to exclude stromal cells), CD2 negative, CD56 positive. CD45 was low on multiple myeloma cells in most samples except MM455. Percent of live target cells was reported for the calculation of adjusted survival as follows: Adjusted survival=(R1/R2)*100, where R1=% live target cells in the presence of antibody, and R2=% live target cells in the absence of test antibody.
T cells were gated as CD2 positive, CD56 negative and either CD4 or CD8 positive. T cell activation was reported as the percent of CD25+CD4 or CD8 T cells out of total CD4 or CD8 T cells.

[6] = system: patients with relapsed or refractory multiple myeloma; test: Phase 1/2 clinical study of REGN5458 monotherapy; details: for Complete response (CR) or stringent CR (sCR) / Overall response rate (ORR) / Partial response (PR) / Very good partial response (VGPR): preliminary results
[7] = Sample MM2, newly diagnosed, E:T 1.4, 7 days
[8] = Sample MM369, newly diagnosed, E:T 0.3, 3 days
[9] = Sample MM453, newly diagnosed, E:T 2.4, 3 days
[10] = Sample MM455, progression, treated, E:T 0.4, 3 days
[11] = Dose Levels 1, 2, 3 (3, 6, 12 mg; n = 24)
[12] = Dose Levels 4, 5 (24, 48 mg; n = 17)
[13] = patients with marrow plasmacytosis <50%

REGN5458: anti-BCMA×anti-CD3 bispecific antibody: mAb21581 BCMA heavy chain, mAb7221G CD3 heavy chain and common light chain; SEQ ID NOs 126, 127, 129
S:N (highest RLU to lowest) [1]: 1
S:N (highest RLU to lowest) [2]: 165
S:N (highest RLU to lowest) [3]: 55
S:N (highest RLU to lowest) [4]: 123
EC50 ([5]; Sample MM2, E:T 1.4, 7 days): 0.747 nM
% MM lysis at 66 nM [5, 7]: 88%
% MM lysis at 66 nM [5, 8]: 96%
EC50 ([5]; Sample MM453, E:T 2.4, 3 days): 0.0989 nM
% MM lysis at 66 nM [5, 9]: 82%
EC50 ([5]; Sample MM455, E:T 0.4, 3 days): 3.67 nM
% MM lysis at 66 nM [5, 10]: 63%
Complete response (CR) or stringent CR (sCR) ([6]; Dose Level 6 (96 mg; n = 8)): 0% (0)
Overall response rate (ORR) ([6]; Dose Level 6 (96 mg; n = 8)): 63% (5)
Partial response (PR) ([6]; Dose Level 6 (96 mg; n = 8)): 0% (0)
Very good partial response (VGPR) ([6]; Dose Level 6 (96 mg; n = 8)): 63% (5)
Complete response (CR) or stringent CR (sCR) [6, 11]: 21% (5)
Overall response rate (ORR) [6, 11]: 29% (7)
Partial response (PR) [6, 11]: 4% (1)
Very good partial response (VGPR) [6, 11]: 4% (1)
Complete response (CR) or stringent CR (sCR) [6, 12]: 18% (3)
Overall response rate (ORR) [6, 12]: 41% (7)
Partial response (PR) [6, 12]: 0% (0)
Very good partial response (VGPR) [6, 12]: 24% (4)
objective response rate (ORR) ([6]; dose level 6): 62.5%
objective response rate (ORR) ([6]; dose levels 1 to 3): 29.2%
objective response rate (ORR) ([6]; dose levels 4 and 5): 41.2%
observed median duration of response ([6]; human, in vivo): 6.01 months
complete response (CR) or stringent CR ([6]; of responders): 42.1%
responders achieving at least a very good partial response (VGPR) ([6]; of responders): 95%
responders with DOR ≥8 months ([6]; of responders): 36.8%
responders with duration of response (DOR) ≥4 months ([6]; of responders): 63.2%
ORR ([6]; patients with extramedullary plasmacytomas (EMP)): 14.3%
ORR [6, 13]: 71.4%
stringent complete response [6, 13]: 35.7%
very good partial response [6, 13]: 35.7%
ORR ([6]; patients with marrow plasmacytosis ≥50%): 9.1%
ORR ([6]; patients without EMP): 45%
complete response or stringent complete response ([6]; patients without EMP): 20%
very good partial response ([6]; patients without EMP): 22.5%
responders receiving ongoing treatment ([6]; to date): 74%

REGN5459: anti-BCMA×anti-CD3 bispecific antibody: mAb21581 BCMA heavy chain, mAb7221G20 CD3 heavy chain and common light chain; SEQ ID NOs 126, 128, 129
S:N (highest RLU to lowest) [1]: 1
S:N (highest RLU to lowest) [2]: 120
S:N (highest RLU to lowest) [3]: 42
S:N (highest RLU to lowest) [4]: 78
EC50 ([5]; Sample MM2, E:T 1.4, 7 days): 7.24 nM
% MM lysis at 66 nM [5, 7]: 85%
EC50 ([5]; Sample MM369, E:T 0.3, 3 days): 0.496 nM
% MM lysis at 66 nM [5, 8]: 94%
EC50 ([5]; Sample MM453, E:T 2.4, 3 days): 1.19 nM
% MM lysis at 66 nM [5, 9]: 80%
EC50 ([5]; Sample MM455, E:T 0.4, 3 days): 79.4 nM
% MM lysis at 66 nM [5, 10]: 52%
